Reference: ChEMBL document CHEMBL5360532, “Current scenario of quinolone hybrids with potential antibacterial activity against ESKAPE pathogens” (Eur J Med Chem, 2023)
Values after ≈ are worked out from the molar mass of the structure shown. Each block holds one compound with its values, some of them ahead of it.

Experiments:
Escherichia coli [1] = assay: Antibacterial activity against Escherichia coli UTI 189 assessed as bacterial growth inhibition measured after 20 hrs by microdilution assay; assay type: functional
Escherichia coli [2] = assay: Antibacterial activity against Escherichia coli CFT 073 assessed as bacterial growth inhibition measured after 20 hrs by microdilution assay; assay type: functional
Staphylococcus aureus [3] = assay: Antibacterial activity against methicillin sensitive Staphylococcus aureus clinical isolate 15 assessed as bacterial growth inhibition measured after 18 to 20 hrs by broth microdilution assay; assay type: functional; conditions: time 18-20 hrs
Staphylococcus aureus [4] = assay: Antibacterial activity against methicillin resistant Staphylococcus aureus clinical isolate 18-2 assessed as bacterial growth inhibition measured after 18 to 20 hrs by broth microdilution assay; assay type: functional; conditions: time 18-20 hrs
Staphylococcus aureus [5] = assay: Antibacterial activity against clinical isolate methicillin sensitive Staphylococcus aureus BAA 1708 assessed as bacterial growth inhibition measured after 18 to 20 hrs by broth microdilution assay; assay type: functional; conditions: time 18-20 hrs
Staphylococcus aureus [6] = assay: Antibacterial activity against clinical isolate methicillin sensitive Staphylococcus aureus BAA 976 assessed as bacterial growth inhibition measured after 18 to 20 hrs by broth microdilution assay; assay type: functional; conditions: time 18-20 hrs
Staphylococcus aureus [7] = assay: Antibacterial activity against clinical isolate methicillin sensitive Staphylococcus aureus ATCC 29213 assessed as bacterial growth inhibition measured after 18 to 20 hrs by broth microdilution assay; assay type: functional; conditions: time 18-20 hrs
Staphylococcus aureus [8] = assay: Antibacterial activity against clinical isolate methicillin resistant Staphylococcus aureus ATCC 43300 assessed as bacterial growth inhibition measured after 18 to 20 hrs by broth microdilution assay; assay type: functional; conditions: time 18-20 hrs
Staphylococcus aureus [9] = assay: Antibacterial activity against clinical isolate vancomycin intermediate resistant Staphylococcus aureus HIP 5827 assessed as bacterial growth inhibition measured after 18 to 20 hrs by broth microdilution assay; assay type: functional; conditions: time 18-20 hrs
Staphylococcus aureus [10] = assay: Antibacterial activity against clinical isolate vancomycin intermediate resistant Staphylococcus aureus HIP 5836 assessed as bacterial growth inhibition measured after 18 to 20 hrs by broth microdilution assay; assay type: functional; conditions: time 18-20 hrs
Staphylococcus aureus [11] = assay: Antibacterial activity against clinical isolate vancomycin intermediate resistant Staphylococcus aureus ATCC 700699 assessed as bacterial growth inhibition measured after 18 to 20 hrs by broth microdilution assay; assay type: functional; conditions: time 18-20 hrs
Staphylococcus aureus [12] = assay: Antibacterial activity against clinical isolate methicillin resistant Staphylococcus aureus ATCC 33591 assessed as bacterial growth inhibition measured after 18 to 20 hrs by broth microdilution assay; assay type: functional; conditions: time 18-20 hrs
[13] = Microsomal stability in mouse liver microsomes assessed as half life measured upto 60 mins in presence of NADPH by HPLC analysis; assay type: ADME, Microsome
[14] = Microsomal stability in mouse plasma assessed as half life measured upto 60 mins in presence of NADPH by HPLC analysis; assay type: ADME, cell-free
Staphylococcus aureus [15] = assay: Antibacterial activity against methicillin sensitive Staphylococcus aureus clinical isolate 18-3 assessed as bacterial growth inhibition measured after 18 to 20 hrs by broth microdilution assay; assay type: functional; conditions: time 18-20 hrs
Escherichia coli [16] = assay: Antibacterial activity against Escherichia coli ATCC 25922 assessed as bacterial growth inhibition by broth microdilution assay; assay type: functional
Staphylococcus aureus [17] = assay: Antibacterial activity against Staphylococcus aureus ATCC 29213 assessed as bacterial growth inhibition by broth microdilution assay; assay type: functional
Staphylococcus aureus [18] = assay: Antibacterial activity against Staphylococcus aureus ATCC 25923 assessed as bacterial growth inhibition measured after 16 hrs by broth microdilution assay; assay type: functional
Staphylococcus aureus [19] = assay: Potency index, ratio of ciprofloxacin MIC to test compound MIC for antimicrobial activity against Staphylococcus aureus ATCC 25923 assessed as bacterial growth inhibition measured after 24 hrs by agar dilution assay; assay type: functional
Staphylococcus aureus [20] = assay: Antibacterial activity against Staphylococcus aureus ATCC 25923 assessed as bacterial growth inhibition measured after 24 hrs by agar dilution assay; assay type: functional
Enterobacter cloacae = assay: Antibacterial activity against fosfomycin resistant Enterobacter cloacae assessed as bacterial growth inhibition measured after 24 hrs by agar dilution assay; assay type: functional
Pseudomonas aeruginosa = assay: Antibacterial activity against imipenem resistant Pseudomonas aeruginosa VIM-2 assessed as bacterial growth inhibition measured after 24 hrs by agar dilution assay; assay type: functional
Escherichia coli [21] = assay: Antibacterial activity against Escherichia coli ATCC 25922 assessed as bacterial growth inhibition measured after 24 hrs by agar dilution assay; assay type: functional

SMILES: O=C(NCCCCCC(=O)N1CCN(c2cc3c(cc2F)c(=O)c(C(=O)O)cn3C2CC2)CC1)c1cc(O)c(O)c(C(=O)N[C@H]2COC(=O)[C@@H](NC(=O)c3cccc(O)c3O)COC(=O)[C@@H](NC(=O)c3cccc(O)c3O)COC2=O)c1
MIC (Escherichia coli [1]): 0.1 µg/mL (≈ 0.0877 µM)
MIC (Escherichia coli [2]): 0.1 µg/mL (≈ 0.0877 µM)

SMILES: CCCCCc1nc2ccccc2c(=O)n1NC(=O)c1c(O)c2ccccc2n(CC)c1=O
MIC (Staphylococcus aureus [3]): 4 µg/mL (≈ 8.96 µM)
MIC (Staphylococcus aureus [4]): 4 µg/mL (≈ 8.96 µM)
MIC (Staphylococcus aureus [5]): 4 µg/mL (≈ 8.96 µM)
MIC (Staphylococcus aureus [6]): 4 µg/mL (≈ 8.96 µM)
MIC (Staphylococcus aureus [7]): 4 µg/mL (≈ 8.96 µM)
MIC (Staphylococcus aureus [8]): 4 µg/mL (≈ 8.96 µM)
MIC (Staphylococcus aureus [9]): 4 µg/mL (≈ 8.96 µM)
MIC (Staphylococcus aureus [10]): 4 µg/mL (≈ 8.96 µM)
MIC (Staphylococcus aureus [11]): 4 µg/mL (≈ 8.96 µM)
MIC (Staphylococcus aureus [12]): 4 µg/mL (≈ 8.96 µM)
half-life [13]: > 373 min
half-life [14]: 24.5 min
MIC (Staphylococcus aureus [15]): 4 µg/mL (≈ 8.96 µM)

SMILES: CCOP(=O)(OCC)C(Nc1ncc(-c2cc3ccccc3oc2=O)s1)c1cc2ccccc2[nH]c1=O (stereo not drawn)
MIC (Staphylococcus aureus [20]): 0.25 µg/mL (≈ 0.465 µM)
MIC (Enterobacter cloacae): 0.25 µg/mL (≈ 0.465 µM)
MIC (Pseudomonas aeruginosa): 0.25 µg/mL (≈ 0.465 µM)
MIC (Escherichia coli [21]): 0.25 µg/mL (≈ 0.465 µM)

More lines, main results first:

MIC (Escherichia coli [16]): 0.25 µg/mL (≈ 0.511 µM)
MIC (Staphylococcus aureus [17]): 0.031 µg/mL (≈ 0.0633 µM)
SMILES: O=C(O)c1cn(C2CC2)c2cc(N3CCN(Cc4nc5ccccc5c(=O)[nH]4)CC3)c(F)cc2c1=O

MIC (Staphylococcus aureus [18]): 0.2 µg/mL (≈ 0.387 µM)
SMILES: COc1cccc2ccc(C(=O)N3CCN(c4cc5c(cc4F)c(=O)c(C(=O)O)cn5C4CC4)CC3)nc12
Ratio (Staphylococcus aureus [19]): 2
